Laboratory results published in patent US11628146B2, “Estrogen receptor ligand treatment for neurodegenerative diseases” (The Regents of the University of California, priority 2014, dated 2023).
Entries after “also recorded” stand apart in the source; their conditions may differ.

Experiments:
[1] = test system: EAE in C57BL/6 mice; assay: Rotarod testing of motor coordination and balance in EAE, C57BL/6 mice; format: in vivo, mouse; set-up: key to Rotarod Score: n.s. = not significant; *p < 0.05; ***p = 0.0004; ****p < 0.0001; n.i. = not informative; conditions: for Rotarod Score: significance vs vehicle
Protocol: Rotarod Testing. Motor behavior was tested up to two times per week for each mouse using a rotarod apparatus (Med Associates Inc., St. Albans, Vt.). Briefly, animals were placed on a rotating horizontal cylinder for a maximum of 200 seconds. The amount of time the mouse remained walking on the cylinder, without falling, was recorded. Each mouse was tested on a speed of 3-30 rpm and given three trials for any given day. The three trials were averaged to report a single value for an individual mouse, and then averages were calculated for all animals within a given treatment group. The first two trial days prior to immunization (day 0), served as practice trials.

[2] = test system: spinal cords of C57BL/6 females with EAE; assay: Spinal cord neuropathology (immunohistochemistry) in EAE; format: in vivo, mouse; conditions: vs vehicle treated EAE
Protocol: Histological Preparation. Mice were exposed to a lethal dose of isoflurane and perfused transcardially with ice-cold 1×PBS for 8-15 min, followed by 10% formalin for 10-15 min. Spinal cords and brains were dissected and submerged in 10% formalin overnight at 4° C., followed by 30% sucrose in PBS for 24 h. Tissues were embedded in […] solution for cryostat sectioning then post-fixed overnight in 10% formalin and cryoprotected in 30% sucrose. The embedded tissues were stored in −80° C. after flash frozen in dry ice. 40 μm thick free-floating spinal cord cross-sections, and sagittal brain sections were obtained with a microtome b cryostat (model HM505E) at −20° C. Tissues were collected serially and stored in 1×PBS with 1% sodium azide in 4° C. until immunohistochemistry.
Immunofluorescence. Prior to histological staining, […] free-floating sections were thoroughly washed with 1×PBS to remove residual sodium azide. In the case of anti-MBP labeling, tissue sections were processed with an additional 1 hour incubation with 5% glacial acetic acid in 100-proof ethanol at room temperature (RT). After washing tissue sections were permeabilized with 0.3% TritonX-100 and 2% normal goat serum in 1×PBS for 30 minutes at room temperature and blocked with 10% normal goat serum in 1×PBS for 1 hour. Tissues were then incubated with primary antibodies overnight in 4° C. The following primary antibody (Ab) were used: Rat anti-MBP (Millipore) at 1:1000 dilutions, Rabbit anti-NF200 (Sigma Aldrich) at 1:750 dilutions, Rabbit anti-beta-APP (Life Technologies) at 1:200 dilutions, Mouse anti-NeuN at 1:1000 dilutions (Millipore), Rabbit anti-PSD95, and Rabbit anti-Synapsin 1 at 1:500 dilutions (Millipore), and Rat anti-CD45 at 1:1500 dilutions (Millipore). The next day tissues were washed and incubated with secondary antibodies conjugated to Cy5 or Cy3 (Millipore) for 1 hour at room temperature. A nuclear stain DAPI (2 ng/mL; Molecular Probes) was added 10 minutes prior to final washes after secondary Ab incubation. Sections were mounted on slides, allowed to semi-dry, and cover slipped in fluoromount G (Fisher Scientific). IgG-control experiments were performed for all primary Ab, and only non-immunoreactive tissues under these conditions were analyzed.
Chromagen Immunohistochemistry. […] Tissues were then incubated with primary antibodies overnight in 4° C. The following primary antibodies were used: Rat anti-CD3 at 1:2000 dilutions (BD Pharmingen), anti-Calbindin D28K at 1:1000 dilutions (Millipore), and Rabbit anti-Iba1 at 1:10000 dilutions (Wako Chemicals), were added for 2 hour at room temperature, and then placed in 4° C. overnight. Tissue sections then followed with secondary Ab labeling at 1:1000 dilutions (Vector labs) for 1 hour at room temperature and then with Avidin-Biotin Conjugation solution (Vector Labs) for 1 hour at room temperature. Tissue sections were treated with DAB peroxidase substrate (Vector labs) according to manufacturer instructions. IgG-control experiments were performed for all primary Ab, and only non-immunoreactive tissues under these conditions were analyzed.
Microscopy and Quantification. Three spinal cord cross-sections at the C5-12 level from each mouse (n=3-6) were captured under microscope at 10× magnification. To quantify demyelination in the spinal cord and cerebellum, white matter was manually delineated on the basis of DAPI staining, and MBP staining intensity was calculated and reported in the sampled area. Axonal damage was assessed by counting beta-APP^+ cells in a confocal 10× microscope in spinal cord. Axonal densities were calculated by counting the number of NF200^+ or NeuN^+ neuronal cells in a 10× confocal image in the sampled area of the captured tissue section. Cerebellar Purkinje (Calbindin^+) cells were manually counted using a brightfield 10× microscope over the entire sagittal cerebellum. […]

[3] = Dissolution of the compound in the oil vehicle; format: physicochemical; conditions: merely pipetting
Protocol: Reagents. AC-186 was dissolved in either Miglyol 812N liquid oil (Sasol North America) or sesame oil (Sigma Aldrich) as following concentration; 1.5 mg/mL for 3 mg/kg group, 5 mg/mL for 10 mg/kg group, and 15 mg/mL for 30 mg/kg group. Diarylpropionitrile (DPN, Tocris Biosciences) was dissolved in 10% molecular-grade ethanol and diluted with 90% of either Miglyol 812N liquid oil or sesame oil.
Three doses of the AC-186 compound were tested in C57BL6 female mice: low (3 mg/kg, every other day), medium (10 mg/kg, every other day), and high (30 mg/kg, every other day), each injected subcutaneously in a sesame oil vehicle. The ERβ ligand diarylpropionitrile (DPN) was tested as a positive control because DPN can partially ameliorate EAE and because the treatment effects in EAE experiments can vary based on the level of disease severity within an experiment. Direct comparisons between treatments were only made between treatment groups within a single EAE experiment and not between treatment groups of different EAE experiments. […] The difference in improvement between the 30 mg/kg AC-186 group and all other groups increased with time.

[4] = 10 mg/kg every other day in miglyol, EAE day 60
[5] = 30 mg/kg every other day in miglyol

Oc1ccc(C2(c3ccccc3F)CCC(F)(F)CC2)cc1 [AC-186]
Rotarod Score ([1]; C57BL/6 F, AC186 3 mg/kg, sesame vehicle): n.s. | Rotarod Score ([1]; C57BL/6 F, AC186 10 mg/kg, miglylol vehicle): n.s | Rotarod Score ([1]; C57BL/6 F, AC186 10 mg/kg, sesame vehicle): n.s. | Rotarod Score ([1]; C57BL/6 F, AC186 30 mg/kg, miglylol vehicle): *** (***p = 0.0004) | Rotarod Score ([1]; C57BL/6 F, AC186 30 mg/kg, sesame vehicle): n.s. | Rotarod Score ([1]; C57BL/6 M, AC186 30 mg/kg, miglylol vehicle): **** (****p < 0.0001) | Rotarod Score ([1]; C57BL/6 M, AC186 30 mg/kg, sesame vehicle): n.s. | Rotarod times ([1]; female C57BL/6, 30 mg/kg in miglyol, vs miglyol vehicle): significant efficacy in the rotarod experiment; also recorded: beneficial effects; also recorded: showed an improvement; also recorded: significant improvement | Rotarod performance at the final two time-points ([1]; female C57BL/6, 30 mg/kg in sesame oil, days 48 and 50, 200 second test): performed perfectly | Rotarod times ([1]; female C57BL/6, 30 mg/kg in sesame oil, vs vehicle): No significant effect was observed | Rotarod times ([1]; male C57BL/6, 30 mg/kg in miglyol, vs miglyol alone): performed significantly better; also recorded: better rotarod scores | Rotarod times ([1]; male C57BL/6, 30 mg/kg in sesame oil, vs sesame oil alone): did not perform significantly better | Axonal densities / axon numbers (NF200), spinal cord [2, 4]: Neuroprotective effects; also recorded: significantly more axon numbers | Myelin staining intensity (MBP), spinal cord [2, 4]: a trend for somewhat higher MBP staining intensity | beta-APP expression (axonal damage), spinal cord [2, 4]: Neuroprotective effects; also recorded: a trend of less beta-APP staining | CD3 stained cells (T lymphocytes), spinal cord ([2]; 10 mg/kg in miglyol): neither AC-186 dose affected levels of CD3 staining; also recorded: no differences in the number of CD3 stained cells | CD45 immunoreactivity (all immune cells), spinal cord ([2]; 10 mg/kg in miglyol): reduced CD45 staining; also recorded: a reduction of CD45 expression | Iba-1 globoid cells (macrophage like cells), spinal cord ([2]; 10 mg/kg in miglyol): reduced Iba-1 globoid cell staining; also recorded: a significant reduction in the number of Iba-1 stained cells with globoid morphology | Axonal densities / axon numbers (NF200), spinal cord [2, 5]: significantly preserved axon numbers; also recorded: sparing of axons and myelin; also recorded: significantly more axon numbers | Myelin staining intensity (MBP), spinal cord [2, 5]: a trend for sparing myelin; also recorded: observed as significant; also recorded: a trend for somewhat higher MBP staining intensity | beta-APP expression (axonal damage), spinal cord [2, 5]: reduced axonal damage; also recorded: significantly less expression of beta-APP | CD3 stained cells (T lymphocytes), spinal cord ([2]; 30 mg/kg in miglyol): neither AC-186 dose affected levels of CD3 staining; also recorded: no differences in the number of CD3 stained cells | CD45 immunoreactivity (all immune cells), spinal cord ([2]; 30 mg/kg in miglyol): reduced CD45 staining; also recorded: lowering CD45 and Iba-1; also recorded: a reduction of CD45 expression | Iba-1 globoid cells (macrophage like cells), spinal cord ([2]; 30 mg/kg in miglyol): reduced Iba-1 globoid cell staining; also recorded: lowering CD45 and Iba-1; also recorded: a significant reduction in the number of Iba-1 stained cells with globoid morphology | Time to dissolve in miglyol [3]: 30 s
